Results: patent US8288375B2, “Fungicidal bicyclic pyrazoles” (E.I. du Pont de Nemours and Company, priority 2007, dated 2012)
Marks after values point to notes of the source that are not given here.

How the values were obtained:
Format in all cases: in vivo
[1] = system: Erysiphe graminis f. sp. tritici; assay: Test A: wheat powdery mildew, test suspension sprayed on wheat seedlings, disease rating; conditions: for pest or weed control at 200 ppm: Blumeria graminis, 192 h
Phytophthora infestans = assay: whole plant or invertebrate; conditions: for pest or weed control at 200 ppm: Phytophthora infestans, in Solanum lycopersicum, 120 h, read-out: Test J disease control rating
Septoria tritici = assay: Test E: wheat leaf blotch, test suspension sprayed on wheat seedlings, disease rating; conditions: 200 ppm test suspension; for pest or weed control at 200 ppm: Zymoseptoria tritici, 504 h;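 on all read-outs here: 200 ppm unless marked * meaning 40 ppm or ** meaning 10 ppm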
Pythium aphanidermatum = assay: Test L: bluegrass pythium blight, test suspension sprayed on bluegrass seedlings, disease rating; conditions: for pest or weed control at 200 ppm: Pythium aphanidermatum, 120 h;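 on all read-outs here: 200 ppm unless marked * meaning 40 ppm or ** meaning 10 ppm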
Septoria nodorum = assay: Test D: wheat glume blotch, test suspension sprayed on wheat seedlings, disease rating; conditions: for pest or weed control at 200 ppm: Parastagonospora nodorum, 216 h
[2] = system: Puccinia recondite f sp. tritici; assay: Test B: wheat leaf rust, test suspension sprayed on wheat seedlings, disease rating; conditions: for pest or weed control at 200 ppm: Puccinia, 192 h;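 on all read-outs here: 200 ppm unless marked * meaning 40 ppm or ** meaning 10 ppm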
Fusarium graminearum = assay: whole plant or invertebrate; conditions: for pest or weed control at 200 ppm: Fusarium graminearum, in Triticum aestivum, 192 h, read-out: Test C disease control rating
[3] = 200 ppm test suspension, 100 = 100% disease control, 0 = no control

| SMILES | Test A disease control rating ([1]; 40 ppm test suspension (*)) | Test B disease control rating ([2]; 40 ppm test suspension (*)) | Test J disease control rating (Phytophthora infestans; 40 ppm test suspension (*)) | Test L disease control rating (Pythium aphanidermatum; 40 ppm test suspension (*)) | Test D disease control rating (Septoria nodorum; 40 ppm test suspension (*)) | Test C disease control rating (Fusarium graminearum; 40 ppm test suspension (*)) | Test A disease control rating [1, 3] [%] | Test J disease control rating (Phytophthora infestans; 200 ppm test suspension) [%] | Test E disease control rating (Septoria tritici) [%] | Test L disease control rating (Pythium aphanidermatum; 200 ppm test suspension) [%] | Test D disease control rating (Septoria nodorum; 200 ppm test suspension) [%] | other results |
| --- | --- | --- | --- | --- | --- | --- | --- | --- | --- | --- | --- | --- |
| CC(C)Nc1nccc(-c2c(-c3ccccc3)nn3c2CCCC3)n1 [Compound 26, N-(1-methylethyl)-4-(4,5,6,7-tetrahydro-2-phenylpyrazolo[1,5-a]pyridin-3-yl)-2-pyrimidinamine] |  |  |  |  |  |  |  |  |  |  |  | pest or weed control at 200 ppm [1, 3]: 91%; pest or weed control at 200 ppm (Phytophthora infestans): 91%; pest or weed control at 200 ppm (Septoria tritici): 96%; pest or weed control at 200 ppm (Pythium aphanidermatum; 200 ppm test suspension): 100%; pest or weed control at 200 ppm (Septoria nodorum; 200 ppm test suspension): 99% |
| CC(=O)Nc1nccc(-c2c(-c3ccc(F)cc3)nn3c2CCCC3)n1 [Compound 52, N-[4-[2-(4-fluorophenyl)-4,5,6,7-tetrahydropyrazolo[1,5-a]pyridin-3-yl]-2-pyrimidinyl]acetamide] |  |  |  |  |  |  |  |  |  |  |  | pest or weed control at 200 ppm [1, 3]: 0%; pest or weed control at 200 ppm ([2]; 200 ppm test suspension): 100%; pest or weed control at 200 ppm (Phytophthora infestans): 95%; pest or weed control at 200 ppm (Septoria tritici): 98%; pest or weed control at 200 ppm (Pythium aphanidermatum; 200 ppm test suspension): 100%; pest or weed control at 200 ppm (Septoria nodorum; 200 ppm test suspension): 97%; pest or weed control at 200 ppm (Fusarium graminearum): 99% |
| C[C@@H](CO)Nc1nccc(-c2c(-c3ccccc3)nn3c2CCCC3)n1 [Compound 54, (2S)-2-[[4-(4,5,6,7-tetrahydro-2-phenylpyrazolo[1,5-c]pyridine-3-yl)-2-pyrimidinyl]amino]-1-propanol] | 0* % | 98* % | 99* % | 100* % | 60* % | 95* % |  |  |  |  |  |  |
| COCC(C)Nc1nccc(-c2c(-c3ccc(F)cc3F)nn3c2CSC3)n1 (stereo not drawn) [Compound 83, 4-[2-(2,4-difluorophenyl)-4H,6H-pyrazolo[1,5-c]thiazol-3-yl]-N-(2-methoxy-1-methylethyl)-2-pyrimidinamine] |  |  |  |  |  |  |  |  |  |  |  | pest or weed control at 200 ppm [1, 3]: 0%; pest or weed control at 200 ppm ([2]; 200 ppm test suspension): 0%; pest or weed control at 200 ppm (Phytophthora infestans): 93%; pest or weed control at 200 ppm (Septoria tritici): 67%; pest or weed control at 200 ppm (Pythium aphanidermatum; 200 ppm test suspension): 99%; pest or weed control at 200 ppm (Septoria nodorum; 200 ppm test suspension): 60%; pest or weed control at 200 ppm (Fusarium graminearum): 0% |
| COc1nccc(-c2c(-c3ccc(F)cc3)nn3c2CCCC3)n1 [Compound 105] |  |  |  |  |  |  | 0 | 73 | 100 | 0 | 78 | Test B disease control rating ([2]; 200 ppm test suspension): 94%; Test C disease control rating (Fusarium graminearum; 200 ppm test suspension): 94% |
| Fc1ccc(-c2nn3c(c2-c2ccnc(Oc4ccc(-n5cccc5)cc4)n2)CCCC3)cc1 [Compound 106] |  |  |  |  |  |  | 0 | 9 | 72 | 0 | 69 | Test B disease control rating ([2]; 200 ppm test suspension): 94%; Test C disease control rating (Fusarium graminearum; 200 ppm test suspension): 92% |
| Fc1ccc(-c2nn3c(c2-c2ccnc(NC4CC4)n2)COCC3)cc1 [Compound 109, N-cyclopropyl-4-[2-(4-fluorophenyl)-6,7-dihydro-4H-pyrazolo[5,1-c][1,4]oxazin-3-yl]-2-pyrimidinamine] |  |  |  |  |  |  |  |  |  |  |  | pest or weed control at 200 ppm [1, 3]: 92%; pest or weed control at 200 ppm (Phytophthora infestans): 99%; pest or weed control at 200 ppm (Septoria tritici): 100%; pest or weed control at 200 ppm (Pythium aphanidermatum; 200 ppm test suspension): 100%; pest or weed control at 200 ppm (Septoria nodorum; 200 ppm test suspension): 0%; pest or weed control at 200 ppm (Fusarium graminearum): 100% |
| CC(C)Nc1nccc(-c2c(-c3ccc(F)cc3)nn3c2CS(=O)(=O)CC3)n1 [Compound 114, 4-[2-(4-fluorophenyl)-6,7-dihydro-5,5-dioxido-4H-pyrazolo[5,1-c][1,4]thiazin-3-yl]-N-(1-methylethyl)-2-pyrimidinamine] |  |  |  |  |  |  |  |  |  |  |  | pest or weed control at 200 ppm [1, 3]: 57%; pest or weed control at 200 ppm ([2]; 200 ppm test suspension): 100%; pest or weed control at 200 ppm (Phytophthora infestans): 100%; pest or weed control at 200 ppm (Septoria tritici): 86%; pest or weed control at 200 ppm (Pythium aphanidermatum; 200 ppm test suspension): 100%; pest or weed control at 200 ppm (Septoria nodorum; 200 ppm test suspension): 73%; pest or weed control at 200 ppm (Fusarium graminearum): 94% |
| CC(C)Nc1nccc(-c2c(-c3ccc(Cl)cc3)nn3c2CCCC3)n1 [compound 21] |  |  |  |  |  |  | 96 | 52 | 100 | 76 | 82 |  |
| Clc1ccc(-c2nn3c(c2-c2ccnc(NC4CC4)n2)CCCC3)cc1 [compound 22] |  |  |  |  |  |  | 50 | 83 | 94 | 77 | 87 |  |
| CN(C)Nc1nccc(-c2c(-c3ccc(F)cc3)nn3c2CCCC3)n1 [compound 23] |  |  |  |  |  |  | 99 | 71 | 98 | 0 | 94 |  |
| OCCNc1nccc(-c2c(-c3ccc(F)cc3)nn3c2CCCC3)n1 [compound 25] |  |  |  |  |  |  | 96 | 83 | 97 | 100 | 87 |  |
| Fc1ccc(-c2nn3c(c2-c2ccnc(NC4CC4)n2)CCCC3)c(F)c1 [compound 28] |  |  |  |  |  |  | 94 | 95 | 96 | 98 | 92 |  |
| CC(C)CNc1nccc(-c2c(-c3ccc(F)cc3)nn3c2CCCC3)n1 [compound 29] |  |  |  |  |  |  | 0 | 47 | 85 | 0 | 98 | Test B disease control rating ([2]; 200 ppm test suspension): 95%; Test C disease control rating (Fusarium graminearum; 200 ppm test suspension): 100% |
| CC(C)(CO)Nc1nccc(-c2c(-c3ccc(F)cc3)nn3c2CCCC3)n1 [compound 30] |  |  |  |  |  |  | 0 | 47 | 93 | 0 | 69 | Test B disease control rating ([2]; 200 ppm test suspension): 91%; Test C disease control rating (Fusarium graminearum; 200 ppm test suspension): 92% |
| Cc1cc(-c2nn3c(c2-c2ccnc(NC(C)CO)n2)CCCC3)ccc1F (stereo not drawn) [compound 32] | 0* % | 74* % | 98* % | 99* % | 0* % | 0* % |  |  |  |  |  |  |
| Cc1cc(-c2nn3c(c2-c2ccnc(NC(C)C)n2)CCCC3)ccc1F [compound 33] | 0* % | 77* % | 95* % | 97* % | 94* % | 98* % |  |  |  |  |  |  |
| Cc1cc(-c2nn3c(c2-c2ccnc(NC[Si](C)(C)C)n2)CCCC3)ccc1F [compound 50] | 0* % | 0* % | 31* % | 68* % | 0* % | 92* % |  |  |  |  |  |  |
| COCC(C)Nc1nccc(-c2c(-c3ccccc3)nn3c2CCCC3)n1 (stereo not drawn) [compound 53] | 0* % | 98* % | 99* % | 100* % | 84* % | 99* % |  |  |  |  |  |  |
| C[Si](C)(C)CNc1nccc(-c2c(-c3ccccc3)nn3c2CCCC3)n1 [compound 55] | 0* % | 91* % | 17* % | 0* % | 44* % | 99* % |  |  |  |  |  |  |
| Cc1cc(-c2nn3c(c2-c2ccnc(NC4CC4)n2)CCCC3)ccc1F [compound 56] | 86* % | 0* % | 93* % | 100* % | 99* % | 100* % |  |  |  |  |  |  |
| C[C@H](CO)Nc1nccc(-c2c(-c3ccc(F)cc3)nn3c2CCCC3)n1 [compound 57] | 0* % | 86* % | 99* % | 100* % | 0* % | 0* % |  |  |  |  |  |  |
| C#CCNc1nccc(-c2c(-c3ccc(F)cc3)nn3c2CCCC3)n1 [compound 58] | 0* % | 0* % | 26* % | 62* % | 82* % | 100* % |  |  |  |  |  |  |
| C#CCNc1nccc(-c2c(-c3ccccc3)nn3c2CCCC3)n1 [compound 59] | 0* % | 92* % | 71* % |  | 94* % | 99* % |  |  |  |  |  | Test L disease control rating (Pythium aphanidermatum; 10 ppm test suspension (**)): 67** % |
| COCC(C)Nc1nccc(-c2c(-c3ccc(F)c(C)c3)nn3c2CCCC3)n1 (stereo not drawn) [compound 62] | 78* % | 80* % | 96* % | 99* % | 60* % | 98* % |  |  |  |  |  |  |
| CC(C)N(O)c1nccc(-c2c(-c3ccc(F)cc3)nn3c2CS(=O)(=O)CC3)n1 [compound 115] | 0* % | 63* % | 73* % |  | 69* % | 0* % |  |  |  |  |  |  |
